Test results: publication PMC4585259 (Frontiers in Pharmacology, 2015)
Like-named read-outs stand apart in the source and are kept apart here.

Molecular target: T1, rNav1.2 sodium channels (Rattus norvegicus, UniProt P04775)
T1 construct: host or cells: HEK-293
Experiment: QPatch automated patch clamp, inhibition of sodium currents evoked by 5 Hz trains at three extracellular pH values
Type: cell-based
Conditions: for class of pH-dependence pattern (cluster analysis): Ward's method on 18 variables of affinity, reversibility, onset; for τoffset / τonset: concentration (lidocaine 300 μM, memantine 30 μM); for inhibition: 100 μM
Procedure: HEK-293 cells stably expressing rNav1.2 sodium channels were obtained from NeuroSearch (Ballerup, Denmark). The cells were grown in Dulbecco's modified Eagle medium supplemented with 10% FBS. Prior to use, the cells were trypsinized and subsequently kept in suspension in the QPatch cell storage facility in CHO-S- SFM-II medium.
Composition of the extracellular solution was: (in mM): 140 NaCl, 3 KCl, 1 CaCl2 1 MgCl2, 0.1 CdCl2, 20 TEA-Cl, 5 HEPES, adjusted to pH 7.3, Osmolality: 320 mOsm. […] Drugs were synthesized in Gedeon Richter Plc. […] The full list of drugs, with their three-letter codes, concentration, as well as their main therapeutic indication and main mechanism of action are shown in Table 1. […] The choice of concentrations used in this study may seem unusually high.
Data were sampled at a frequency of 25 kHz and filtered at 5 kHz. Junction potential was calculated to be −11 mV and was corrected for. […] Cells having membrane resistance < 500 MOhm, series resistance > 9 MOhm, or capacitance > 22 pF were excluded from analysis. The experimental protocol was also identical to the one used in our previous study: sodium channels were activated by 5 Hz trains of 5 depolarizations (−90 to −10 mV) repeated in every 20 s. In this study, however, the same control–drug-application–washout sequence was repeated four times: at neutral, acidic, alkalic, and again neutral pH. The peak amplitudes of sodium currents throughout the whole experiment are shown plotted against time in Figure 1 and Supplementary Figure 1.
Initial analysis, including subtraction of leak and capacitive artifacts, as well as peak detection were done in the QPatch software. […] All experiments were normalized to the amplitude of the current evoked by the first depolarization of the last train under control conditions. […] For all four drug applications in an experiment, apparent affinity, onset and offset time constants as well as reversibility values were calculated. […] (This method is equivalent to applying the Lineweaver-Burk plot method using a single concentration.) Reversibility values were calculated from control (c), inhibited (i), and wash-out (w) amplitudes as follows: Reversibility = (w-i)/(c-i). Reversibility values should not be regarded as experimental platform-independent properties of compounds. […] However, reversibility values are a valuable source of information regarding physicochemical differences between individual drugs, or between effects of the same drug under different extracellular pH conditions. Onset and offset time constants were determined by single exponential fitting to individual experiments. For neutral pH numerical data were given as the average of the data from the first and the last drug applications. Thin black lines on Figure 1 and Supplemental Figure 1 show the average of five fitted exponentials, (not the exponential fitted to the averaged normalized amplitudes). The numerical values of apparent affinity, onset and offset time constants and reversibility are shown in Table 2, and their relative position is illustrated in Figure 2. Affinity and time constant values were logarithmically transformed for statistics, therefore we show their geometric mean. For recovery data no transformation was done, and we show arithmetic mean values. Significance values were calculated using paired, two-tailed Student's t-test based on five pairs of apparent affinity (log transform), time constant (log transform), or reversibility values obtained from five individual experiments. Because of the large number of comparisons in this study, we accepted p < 0.01 as significant. Cluster analysis was done using Ward's minimum variance method, with Euclidean distance measure. Data were normalized by subtracting the mean (after logarithmic transformation in the case of apparent affinity and time constants), and dividing by the standard deviation.

[1] = pH 6.0, single concentration (lidocaine 300 μM, memantine 30 μM), geometric mean of 5, read-out: apparent affinity
[2] = pH 7.3, single concentration (lidocaine 300 μM, memantine 30 μM), geometric mean of 5, read-out: apparent affinity
[3] = pH 8.6, single concentration (lidocaine 300 μM, memantine 30 μM), geometric mean of 5, read-out: apparent affinity
[4] = pH=6.0, cc 100 mM, read-out: Apparent Affinity
[5] = pH=7.3, cc 100 mM, read-out: Apparent Affinity
[6] = pH=8.6, cc 100 mM, read-out: Apparent Affinity

T1 sequence (P04775 whole entry): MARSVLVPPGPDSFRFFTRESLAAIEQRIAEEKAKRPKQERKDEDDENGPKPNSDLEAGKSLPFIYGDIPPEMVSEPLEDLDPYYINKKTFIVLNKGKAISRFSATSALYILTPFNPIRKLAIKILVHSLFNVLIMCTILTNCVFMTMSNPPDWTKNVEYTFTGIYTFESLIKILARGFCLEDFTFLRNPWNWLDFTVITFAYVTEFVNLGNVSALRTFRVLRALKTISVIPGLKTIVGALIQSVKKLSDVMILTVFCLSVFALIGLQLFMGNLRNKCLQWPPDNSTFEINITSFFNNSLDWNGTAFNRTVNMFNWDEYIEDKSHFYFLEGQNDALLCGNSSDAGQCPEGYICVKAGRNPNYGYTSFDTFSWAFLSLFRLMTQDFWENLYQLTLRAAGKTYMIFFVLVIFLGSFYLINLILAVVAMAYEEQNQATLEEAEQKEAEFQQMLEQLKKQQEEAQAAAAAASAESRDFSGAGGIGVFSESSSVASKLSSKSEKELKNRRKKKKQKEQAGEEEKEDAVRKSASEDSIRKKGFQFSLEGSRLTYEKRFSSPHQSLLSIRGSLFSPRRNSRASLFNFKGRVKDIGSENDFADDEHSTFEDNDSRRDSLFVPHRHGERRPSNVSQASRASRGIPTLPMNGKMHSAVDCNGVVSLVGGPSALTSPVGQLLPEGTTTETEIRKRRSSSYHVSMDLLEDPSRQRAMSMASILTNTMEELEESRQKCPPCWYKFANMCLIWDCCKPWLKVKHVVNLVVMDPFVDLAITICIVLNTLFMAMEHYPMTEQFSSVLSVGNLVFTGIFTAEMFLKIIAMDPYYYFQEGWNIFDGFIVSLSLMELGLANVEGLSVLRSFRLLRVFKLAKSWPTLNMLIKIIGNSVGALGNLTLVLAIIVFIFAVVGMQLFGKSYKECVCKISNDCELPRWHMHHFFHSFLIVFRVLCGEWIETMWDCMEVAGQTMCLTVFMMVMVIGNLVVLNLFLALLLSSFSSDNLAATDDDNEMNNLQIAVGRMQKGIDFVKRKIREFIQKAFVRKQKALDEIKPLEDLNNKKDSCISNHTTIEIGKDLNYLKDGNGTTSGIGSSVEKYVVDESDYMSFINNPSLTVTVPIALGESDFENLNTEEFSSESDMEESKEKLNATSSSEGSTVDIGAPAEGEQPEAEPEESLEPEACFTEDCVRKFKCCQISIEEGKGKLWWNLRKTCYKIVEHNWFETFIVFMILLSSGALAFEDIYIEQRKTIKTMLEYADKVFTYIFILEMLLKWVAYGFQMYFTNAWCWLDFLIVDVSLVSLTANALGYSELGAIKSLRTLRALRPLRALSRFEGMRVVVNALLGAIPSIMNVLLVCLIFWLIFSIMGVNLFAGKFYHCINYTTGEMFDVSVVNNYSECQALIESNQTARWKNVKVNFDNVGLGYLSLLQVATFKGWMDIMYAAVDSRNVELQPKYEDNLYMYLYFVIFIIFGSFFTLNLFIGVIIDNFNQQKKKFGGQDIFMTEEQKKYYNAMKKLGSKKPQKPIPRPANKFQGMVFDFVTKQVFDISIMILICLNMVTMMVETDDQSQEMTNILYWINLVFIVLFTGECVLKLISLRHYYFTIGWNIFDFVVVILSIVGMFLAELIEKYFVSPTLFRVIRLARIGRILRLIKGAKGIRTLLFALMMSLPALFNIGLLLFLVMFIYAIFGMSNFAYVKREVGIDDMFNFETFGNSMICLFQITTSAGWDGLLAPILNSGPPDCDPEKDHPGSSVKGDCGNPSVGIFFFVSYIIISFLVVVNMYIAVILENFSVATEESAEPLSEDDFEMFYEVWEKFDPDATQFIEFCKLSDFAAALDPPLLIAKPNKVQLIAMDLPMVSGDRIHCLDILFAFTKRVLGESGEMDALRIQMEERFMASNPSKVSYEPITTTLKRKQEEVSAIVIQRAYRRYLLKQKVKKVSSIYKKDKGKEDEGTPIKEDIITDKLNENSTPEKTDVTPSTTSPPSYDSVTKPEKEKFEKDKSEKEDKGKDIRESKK

Row | class of pH-dependence pattern (cluster analysis) | τoffset (pH 6.0) [s] | τonset (pH 6.0) [s] | Kd [1] [µM] | τoffset (pH 7.3) [s] | τonset (pH 7.3) [s] | Kd [2] [µM] | τoffset (pH 8.6) [s] | SMILES | Ratio Reversibility (pH 6.0/7.3, cc 100 mM) | Ratio Tau Offset (pH 6.0/7.3, cc 100 mM) | Ratio Tau Onset (pH 6.0/7.3, cc 100 mM) | log Ratio App Aff (pH 6.0/7.3, cc 100 mM) | Ratio Reversibility (pH 6.0/8.6, cc 100 mM) | Ratio Tau Offset (pH 6.0/8.6, cc 100 mM) | Ratio Tau Onset (pH 6.0/8.6, cc 100 mM) | log Ratio App Aff (pH 6.0/8.6, cc 100 mM) | Ratio Reversibility (pH 7.3/8.6, cc 100 mM) | Ratio Tau Offset (pH 7.3/8.6, cc 100 mM) | Ratio Tau Onset (pH 7.3/8.6, cc 100 mM) | log Ratio App Aff (pH 7.3/8.6, cc 100 mM) | other results
1 | Class F | 16.20 | 7.40 | 373 | 12.90 | 7.20 | 275 | 12.60 | Cc1ccc(C(=O)C(C)CN2CCCCC2)cc1 (stereo not drawn) [tolperisone] | 0.699 | 1.256 | 1.028 | 0.132 | 0.944 | 1.286 | 1.423 | 0.542 | 1.349 | 1.024 | 1.385 | 0.410 | decrease of recovery at pH = 8.6 as compared to pH = 7.3: 1.35 fold; τonset (pH 8.6): 5.20 s; Kd [3]: 107 µM; KD app, effect of acidic medium (pH = 6.0 vs neutral, increased KD app = decreased apparent affinity): MEM,MEX,TOL↑; Reversibility (pH=6.0, cc 100 mM): 0.65; Kd [4]: 373 µM; Reversibility (pH=7.3, cc 100 mM): 0.93; Kd [5]: 275 µM; Reversibility (pH=8.6, cc 100 mM): 0.69; Kd [6]: 107 µM
2 | Class F | 18.60 | 9.00 | 334 | 15.00 | 10.00 | 137 | 20.80 | C[Si](C)(Cc1ccc(F)cc1)CN1CCCCC1 [silperisone] | 0.877 | 1.240 | 0.900 | 0.387 | 1.714 | 0.894 | 1.154 | 1.096 | 1.955 | 0.721 | 1.282 | 0.709 | inhibition (pH 6.0): 23%; inhibition (pH 7.3): 42%; inhibition (pH 8.6): 79%; τonset (pH 8.6): 7.80 s; Kd [3]: 26.8 µM; Reversibility (pH=6.0, cc 100 mM): 0.80; Kd [4]: 334 µM; Reversibility (pH=7.3, cc 100 mM): 0.92; Kd [5]: 137 µM; Reversibility (pH=8.6, cc 100 mM): 0.47; Kd [6]: 26.8 µM

Row | SMILES | class of pH-dependence pattern (cluster analysis) | τoffset (pH 6.0) [s] | τonset (pH 6.0) [s] | Kd [1] [µM] | τoffset (pH 7.3) [s] | τonset (pH 7.3) [s] | Kd [2] [µM] | τoffset (pH 8.6) [s] | Ratio Reversibility (pH 6.0/7.3, cc 100 mM) | Ratio Tau Offset (pH 6.0/7.3, cc 100 mM) | Ratio Tau Onset (pH 6.0/7.3, cc 100 mM) | log Ratio App Aff (pH 6.0/7.3, cc 100 mM) | Ratio Reversibility (pH 6.0/8.6, cc 100 mM) | Ratio Tau Offset (pH 6.0/8.6, cc 100 mM) | Ratio Tau Onset (pH 6.0/8.6, cc 100 mM) | log Ratio App Aff (pH 6.0/8.6, cc 100 mM) | Ratio Reversibility (pH 7.3/8.6, cc 100 mM) | Ratio Tau Offset (pH 7.3/8.6, cc 100 mM) | Ratio Tau Onset (pH 7.3/8.6, cc 100 mM) | log Ratio App Aff (pH 7.3/8.6, cc 100 mM) | other results
3 | CCCCN1CCCCC1C(=O)Nc1c(C)cccc1C (stereo not drawn) [bupivacaine] | Class B | 56.00 | 51.00 | 106 | 20.80 | 12.20 | 64.2 | 12.40 | 0.906 | 2.692 | 4.180 | 0.218 | 1.346 | 4.516 | 4.322 | 0.412 | 1.485 | 1.677 | 1.034 | 0.194 | effect of alkalic pH on onset/offset kinetics (in words): significant acceleration of both onset and offset; τonset (pH 8.6): 11.80 s; Kd [3]: 41 µM; Reversibility (pH=6.0, cc 100 mM): 0.64; Kd [4]: 106 µM; Reversibility (pH=7.3, cc 100 mM): 0.71; Kd [5]: 64.2 µM; Reversibility (pH=8.6, cc 100 mM): 0.48; Kd [6]: 41 µM
